Data taken from ChEMBL document CHEMBL4177664, “Macrocyclic pyrrolobenzodiazepine dimers as antibody-drug conjugate payloads” (Bioorg Med Chem Lett, 2017).

Experiments:
[1] = tested on: OVCAR-3; experiment: Antiproliferative activity against human OVCAR3 cells after 72 hrs by MTS assay; assay type: functional, cell-based; settings: OVCAR-3, 72 h
[2] = Aqueous solubility of the compound at pH 5.5; assay type: physicochemical; settings: aqueous medium
[3] = tested on: NCI-N87; experiment: Antiproliferative activity against human NCI-N87 cells after 72 hrs by MTS assay; assay type: functional, cell-based; settings: NCI-N87, 72 h
[4] = tested on: HCT-116; experiment: Antiproliferative activity against human HCT116 cells after 72 hrs by MTS assay; assay type: functional, cell-based; settings: HCT-116, 72 h
[5] = tested on: NCI-H226; experiment: Antiproliferative activity against human NCI-H226 cells after 72 hrs by MTS assay; assay type: functional, cell-based; settings: NCI-H226, 72 h
[6] = tested on: HCT-116/VM46; experiment: Antiproliferative activity against human HCT116/VM46 cells after 72 hrs by MTS assay; assay type: functional, cell-based; settings: HCT-116/VM46, 72 h
[7] = Stability in rat serum measured up to 24 hrs; assay type: ADME, cell-free
[8] = Stability in human serum measured up to 24 hrs; assay type: ADME, cell-free
[9] = Stability in mouse serum measured up to 24 hrs; assay type: ADME, cell-free

## COc1ccc(C2=CN3C(=O)c4cc5c(cc4N=C[C@@H]3C2)OCCCOc2cc3c(cc2OCCCCCCCCO5)C(=O)N2C=C(c4ccc(OC)cc4)C[C@H]2C=N3)cc1
[1]
  IC50: 1.82 nM
[2]
  solubility: < 1 µg/mL
[3]
  IC50: 0.621 nM
[4]
  IC50: 0.167 nM
[5]
  IC50: 0.993 nM
[6]
  IC50: 1.05 nM

## O=C(CCN1C(=O)C=CC1=O)NCCOCCOCCOCCOCCOCCOCCOCCOCCC(=O)ON1C(=O)CCC1=O
[7]
  Stability: Unstable
[8]
  Stability: Unstable
[9]
  Stability: Unstable

## COc1cc2c(cc1OCCCOc1cc3c(cc1OC)C(=O)N1CCC[C@H]1C=N3)N=C[C@@H]1CCCN1C2=O [DSB-120]
[1]
  IC50: 56 nM
[3]
  IC50: 63 nM
[5]
  IC50: 70 nM

## CN1CCN(c2ccc(C3=CN4C(=O)c5cc6c(cc5N=C[C@@H]4C3)OCCCOc3cc4c(cc3OCCCCCCCCO6)C(=O)N3C=C(c5ccc(N)cc5)C[C@H]3C=N4)cc2)CC1
[1]
  IC50: 0.385 nM
[3]
  IC50: 0.486 nM
[4]
  IC50: 0.016 nM
[5]
  IC50: 0.024 nM
[6]
  IC50: 0.015 nM

## O=C1c2cc3c(cc2N=C[C@@H]2CCCN12)OCCCOc1cc2c(cc1OCCCCCCCCO3)C(=O)N1CCC[C@H]1C=N2
[1]
  IC50: 1.2 nM
[3]
  IC50: 2.7 nM
[5]
  IC50: 1.6 nM

## O=C1c2cc3c(cc2N=C[C@@H]2CCCN12)OCCCOc1cc2c(cc1OCCCCCCCCCO3)C(=O)N1CCC[C@H]1C=N2
[1]
  IC50: 7.3 nM
[3]
  IC50: 8.3 nM
[5]
  IC50: 8.7 nM

## O=C1c2cc3c(cc2N=C[C@@H]2CCCN12)OCCCOc1cc2c(cc1OCCCCCCCCCCCO3)C(=O)N1CCC[C@H]1C=N2
[1]
  IC50: 78 nM
[3]
  IC50: 146 nM
[5]
  IC50: 69 nM

## COc1ccc(C2=CN3C(=O)c4cc5c(cc4N=C[C@@H]3C2)OCCCOc2cc3c(cc2OCCCCCCCCO5)C(=O)N2C=C(c4ccc(N)cc4)C[C@H]2C=N3)cc1
[1]
  IC50: 0.311 nM
[3]
  IC50: 0.559 nM
[4]
  IC50: 0.063 nM
[5]
  IC50: 0.355 nM
[6]
  IC50: 0.36 nM

## COc1cc2c(cc1OCCCOc1cc3c(cc1OC)C(=O)N1C=C(c4ccccc4)C[C@H]1C=N3)N=C[C@@H]1CC(c3ccccc3)=CN1C2=O
[1]
  IC50: 0.126 nM
[3]
  IC50: 0.152 nM
[5]
  IC50: 0.117 nM

## O=C1c2cc3c(cc2N=C[C@@H]2CCCN12)OCCCOc1cc2c(cc1OCCCCCCCCCCCCO3)C(=O)N1CCC[C@H]1C=N2
[1]
  IC50: 136 nM
[3]
  IC50: 306 nM
[5]
  IC50: 109 nM

## O=C1c2cc3c(cc2N=C[C@@H]2CCCN12)OCCCOc1cc2c(cc1OCCCCCCCO3)C(=O)N1CCC[C@H]1C=N2
[1]
  IC50: 3.4 nM
[3]
  IC50: 4.6 nM
[5]
  IC50: 8.1 nM

## O=C1c2cc3c(cc2N=C[C@@H]2CCCN12)OCCCOc1cc2c(cc1OCCCCCCCCCCO3)C(=O)N1CCC[C@H]1C=N2
[1]
  IC50: 20 nM
[3]
  IC50: 22 nM
[5]
  IC50: 12 nM

## O=C1c2cc3c(cc2N=C[C@@H]2CC(c4ccccc4)=CN12)OCCCOc1cc2c(cc1OCCOCCOCCO3)C(=O)N1C=C(c3ccccc3)C[C@H]1C=N2
[1]
  IC50: 1.7 nM
[2]
  solubility: < 1 µg/mL
[3]
  IC50: 1.54 nM
[4]
  IC50: 0.129 nM
[5]
  IC50: 1.07 nM
[6]
  IC50: 6.44 nM

## CN1CCN(c2ccc(C3=CN4C(=O)c5cc6c(cc5N=C[C@@H]4C3)OCCCOc3cc4c(cc3OCCCCCCCCO6)C(=O)N3C=C(c5ccc(N6CCN(C)CC6)cc5)C[C@H]3C=N4)cc2)CC1
[1]
  IC50: 0.35 nM
[2]
  solubility: > 698 µg/mL
[3]
  IC50: 0.034 nM
[4]
  IC50: 0.006 nM
[5]
  IC50: 0.047 nM
[6]
  IC50: 0.076 nM

## CC1=CN2C(=O)c3cc4c(cc3N=C[C@@H]2C1)OCCCOc1cc2c(cc1OCCCCCCCCO4)C(=O)N1C=C(c3ccc(N)cc3)C[C@H]1C=N2
[1]
  IC50: 1.24 nM
[3]
  IC50: 1.36 nM
[4]
  IC50: 0.135 nM
[5]
  IC50: 0.655 nM
[6]
  IC50: 1.22 nM
